ChEMBL document CHEMBL5120875, “Discovery of diarylheptanoids that activate α7 nAchR-JAK2-STAT3 signaling in macrophages with anti-inflammatory activity in vitro and in vivo” (Bioorg Med Chem, 2022)
Active and inactive are the calls of the source. No cut-off for these calls is given here.

Tests used:
RAW264.7 [1] = assay: Cytotoxicity against mouse RAW264.7 cells assessed as effect on cell viability at 5 uM incubated for 24 hrs by alamar blue reagent based fluorescence assay; type: toxicity; conditions: raw264.7, 24 h
RAW264.7 [2] = assay: Inhibition of LPS-induced NO production in mouse RAW264.7 cells at 5 uM preincubated with compound for 2 hrs followed by LPS stimulation for 24 hrs by Griess reagent based assay relative to control; type: functional; conditions: time 26 hrs
RAW264.7 [3] = assay: Inhibition of LPS-induced NO production in mouse RAW264.7 cells preincubated with compound for 2 hrs followed by LPS stimulation for 24 hrs by Griess reagent based assay; type: functional, cell-based
RAW264.7 [4] = assay: Antiinflammatory activity in LPS-induced mouse RAW264.7 cells assessed as enhancement of STAT3 phosphorylation at […] pretreated with compound for 2 hrs followed by LPS-stimulation and measured after 30 mins by Western blot analysis; type: functional, cell-based; conditions: time 2.5 hrs
RAW264.7 [5] = assay: Antiinflammatory activity in LPS-induced mouse RAW264.7 cells assessed as enhancement of STAT3 phosphorylation at 20 uM pretreated with compound for 2 hrs followed by LPS-stimulation and measured after 30 mins by Western blot analysis; type: functional, cell-based; conditions: time 2.5 hrs
RAW264.7 [6] = assay: Antiinflammatory activity in LPS-induced mouse RAW264.7 cells assessed as enhancement of JAK2 phosphorylation at 20 uM pretreated with compound for 2 hrs followed by LPS-stimulation and measured after 30 mins by Western blot analysis; type: functional, cell-based; conditions: time 2.5 hrs
RAW264.7 [7] = assay: Antiinflammatory activity in LPS-induced mouse RAW264.7 cells assessed as enhancement of JAK2 phosphorylation at […] pretreated with compound for 2 hrs followed by LPS-stimulation and measured after 30 mins by Western blot analysis; type: functional, cell-based; conditions: time 2.5 hrs

O[C@@H](CC/C=C/c1ccccc1)CCc1ccc(OCc2ccccc2)cc1 was tested, and the Activity (RAW264.7 [1]) was “Non-Toxic” and the inhibition at 5 µM (RAW264.7 [2]) was -15.7%.
COc1cccc(/C=C/C(=O)/C=C/C=C/c2cccc(O)c2)c1 was tested, and the Activity (RAW264.7 [1]) was “Non-Toxic”, the inhibition at 5 µM (RAW264.7 [2]) was 84.3% and the IC50 (RAW264.7 [3]) was 810 nM.
COc1ccc(OC)c(CCCCC(O)CCc2ccc(OC)c(O)c2)c1 (stereo not drawn) was tested, and the Activity (RAW264.7 [1]) was “Non-Toxic” and the inhibition at 5 µM (RAW264.7 [2]) was 36.2%.
COc1ccc(CCCCC(=O)CCc2ccc(OC)c(O)c2)c(OC)c1 was tested, and the Activity (RAW264.7 [1]) was “Non-Toxic” and the inhibition at 5 µM (RAW264.7 [2]) was 16.6%.
In the case of O=C(/C=C/C=C/c1ccccc1)CCc1ccc(O)cc1, the Activity (RAW264.7 [1]) is reported as “Non-Toxic” and the inhibition at 5 µM (RAW264.7 [2]) is reported as 60.4%.
With COc1cc(CCC(=O)CC/C=C/c2ccccc2)ccc1O the Activity (RAW264.7 [1]) was “Non-Toxic” and the inhibition at 5 µM (RAW264.7 [2]) was 52.2%.
In the case of O=C(/C=C/C=C/c1cccc(O)c1)/C=C/c1cccc(O)c1, the Activity (RAW264.7 [1]) is reported as “Non-Toxic”, the inhibition at 5 µM (RAW264.7 [2]) is reported as 95.9% and the IC50 (RAW264.7 [3]) is reported as 580 nM.
In the case of CC(=O)Oc1ccc(CCC(=O)CC/C=C/c2ccccc2)cc1, the Activity (RAW264.7 [1]) is reported as “Non-Toxic” and the inhibition at 5 µM (RAW264.7 [2]) is reported as 22.2%.
With Oc1ccc(CC[C@@H](O)CC/C=C/c2ccccc2)cc1O the Activity (RAW264.7 [1]) was “Non-Toxic” and the inhibition at 5 µM (RAW264.7 [2]) was 34.7%.
With Oc1ccc(CCCC[C@H](O)CCc2ccccc2)cc1 the Activity (RAW264.7 [1]) was “Non-Toxic” and the inhibition at 5 µM (RAW264.7 [2]) was 23.9%.
With COc1ccc(OC)c(CCCCC(=O)CCc2ccc(OC)c(O)c2)c1 the Activity (RAW264.7 [1]) was “Non-Toxic” and the inhibition at 5 µM (RAW264.7 [2]) was 39.4%.
For COC(/C=C/C=C/c1ccccc1)CCc1ccc(O)cc1 (stereo not drawn), the Activity (RAW264.7 [1]) was “Non-Toxic” and the inhibition at 5 µM (RAW264.7 [2]) was 66.3%.
With O[C@@H](CCCCc1ccccc1)CCc1ccccc1 the Activity (RAW264.7 [1]) was “Non-Toxic” and the inhibition at 5 µM (RAW264.7 [2]) was 40.1%.
In the case of Oc1ccc(CC[C@@H](O)CC/C=C/c2ccccc2)cc1, the Activity (RAW264.7 [1]) is reported as “Non-Toxic” and the inhibition at 5 µM (RAW264.7 [2]) is reported as 20.4%.
For CC(=O)Oc1ccc(CCC(=O)CCCCc2ccccc2)cc1OC(C)=O, the Activity (RAW264.7 [1]) was “Non-Toxic”, the inhibition at 5 µM (RAW264.7 [2]) was 128% and the IC50 (RAW264.7 [3]) was 370 nM.
For COc1cccc(/C=C/C=C/C(=O)/C=C/c2cccc(O)c2)c1, the Activity (RAW264.7 [1]) was “Non-Toxic”, the inhibition at 5 µM (RAW264.7 [2]) was 92.3% and the IC50 (RAW264.7 [3]) was 410 nM.
For O=C(/C=C/C=C/c1ccccc1)CCc1ccccc1, the Activity (RAW264.7 [1]) was “Non-Toxic” and the inhibition at 5 µM (RAW264.7 [2]) was 52.8%.
COc1ccc(/C=C/C(=O)/C=C/C=C/c2cccc(O)c2)cc1 was tested, and the Activity (RAW264.7 [1]) was “Non-Toxic”, the inhibition at 5 µM (RAW264.7 [2]) was 85.8% and the IC50 (RAW264.7 [3]) was 1230 nM.
In the case of O[C@@H](/C=C/C=C/c1ccccc1)CCc1ccccc1, the Activity (RAW264.7 [1]) is reported as “Non-Toxic” and the inhibition at 5 µM (RAW264.7 [2]) is reported as 4.61%.
In the case of O[C@@H](CC/C=C/c1ccccc1)CCc1ccccc1, the Activity (RAW264.7 [1]) is reported as “Non-Toxic” and the inhibition at 5 µM (RAW264.7 [2]) is reported as -18.3%.
With COc1ccc(CCC(/C=C/C=C/c2ccccc2)OC)cc1O (stereo not drawn) the Activity (RAW264.7 [1]) was “Non-Toxic” and the inhibition at 5 µM (RAW264.7 [2]) was 71.1%.
CC(=O)Oc1ccc(CC[C@@H](O)CCCCc2ccccc2)cc1OC(C)=O was tested, and the Activity (RAW264.7 [1]) was “Non-Toxic”, the inhibition at 5 µM (RAW264.7 [2]) was 99.2% and the IC50 (RAW264.7 [3]) was 330 nM.
With COc1ccc(CCCCC(=O)CCc2cccc(O)c2)c(OC)c1 the Activity (RAW264.7 [1]) was “Non-Toxic” and the inhibition at 5 µM (RAW264.7 [2]) was 2.74%.
With O/N=C(/CC/C=C/c1ccccc1)CCc1ccccc1 the Activity (RAW264.7 [1]) was “Non-Toxic” and the inhibition at 5 µM (RAW264.7 [2]) was 39.4%.
For COc1ccc(CCC(=O)CCCCc2cccc(O)c2)cc1, the Activity (RAW264.7 [1]) was “Non-Toxic” and the inhibition at 5 µM (RAW264.7 [2]) was 21.4%.
In the case of O=C(CCCCc1ccccc1)CCc1ccccc1, the Activity (RAW264.7 [1]) is reported as “Non-Toxic” and the inhibition at 5 µM (RAW264.7 [2]) is reported as 38.9%.
With O=C(CCc1ccccc1)C[C@@H](O)CCc1ccccc1 the Activity (RAW264.7 [1]) was “Non-Toxic” and the inhibition at 5 µM (RAW264.7 [2]) was 14.7%.
In the case of COc1ccc(CCCCC(O)CCc2ccc(OC)c(O)c2)c(OC)c1 (stereo not drawn), the Activity (RAW264.7 [1]) is reported as “Non-Toxic” and the inhibition at 5 µM (RAW264.7 [2]) is reported as -2.9%.
COc1cc(CC[C@@H](O)CC/C=C/c2ccccc2)ccc1O was tested, and the Activity (RAW264.7 [1]) was “Non-Toxic” and the inhibition at 5 µM (RAW264.7 [2]) was 47.9%.
For COc1ccc(/C=C2\CCCN=C2c2cccnc2)c(OC)c1, the Activity (RAW264.7 [4]) was “Active”, the Activity (RAW264.7 [5]) was “Active” and the Activity (RAW264.7 [6]) was “Active”. For the same compound, the Activity (RAW264.7 [7]) was “Active”.
For OC(CCc1ccccc1)CC(O)CCc1ccccc1 (stereo not drawn), the Activity (RAW264.7 [1]) was “Non-Toxic” and the inhibition at 5 µM (RAW264.7 [2]) was 23.5%.
For O=C(CC/C=C/c1ccccc1)CCc1ccccc1, the Activity (RAW264.7 [1]) was “Non-Toxic” and the inhibition at 5 µM (RAW264.7 [2]) was -8.52%.
For CC(=O)OCC[N+](C)(C)C, the Activity (RAW264.7 [4]) was “Active”, the Activity (RAW264.7 [5]) was “Active” and the Activity (RAW264.7 [6]) was “Active”. For the same compound, the Activity (RAW264.7 [7]) was “Active”.
For C(=C\C=C\c1ccccc1)/C=C/Cc1ccccc1, the Activity (RAW264.7 [1]) was “Non-Toxic”, the inhibition at 5 µM (RAW264.7 [2]) was 124% and the IC50 (RAW264.7 [3]) was 840 nM.
With COc1ccc(CCC(=O)CCCCc2cccc(O)c2)cc1O the Activity (RAW264.7 [1]) was “Non-Toxic” and the inhibition at 5 µM (RAW264.7 [2]) was 8.39%.
Oc1ccc(CC[C@@H](O)CCCCc2ccccc2)cc1O was tested, and the Activity (RAW264.7 [1]) was “Non-Toxic” and the inhibition at 5 µM (RAW264.7 [2]) was 54%.
In the case of COc1ccc(CCCCC(O)CCc2cccc(O)c2)c(OC)c1 (stereo not drawn), the Activity (RAW264.7 [1]) is reported as “Non-Toxic” and the inhibition at 5 µM (RAW264.7 [2]) is reported as -14.5%.
In the case of COc1cc(/C=C/C(=O)CC(=O)/C=C/c2ccc(O)c(OC)c2)ccc1O [CURCUMIN], the Activity (RAW264.7 [1]) is reported as “Non-Toxic”, the inhibition at 5 µM (RAW264.7 [2]) is reported as 74% and the IC50 (RAW264.7 [3]) is reported as 1890 nM.
With O=C(CCc1ccccc1)C[C@@H](O)/C=C/c1ccccc1 the Activity (RAW264.7 [1]) was “Non-Toxic” and the inhibition at 5 µM (RAW264.7 [2]) was 11%.
CC(=O)Oc1ccc(CC[C@@H](O)CC/C=C/c2ccccc2)cc1OC(C)=O was tested, and the Activity (RAW264.7 [1]) was “Non-Toxic”, the inhibition at 5 µM (RAW264.7 [2]) was 121% and the IC50 (RAW264.7 [3]) was 1610 nM.
In the case of COc1cc(CCC(O)/C=C/C=C/c2ccccc2)ccc1O (stereo not drawn), the Activity (RAW264.7 [1]) is reported as “Non-Toxic” and the inhibition at 5 µM (RAW264.7 [2]) is reported as 35.3%.
For Oc1ccc(CCC(O)CC(O)CCc2ccccc2)cc1 (stereo not drawn), the Activity (RAW264.7 [1]) was “Non-Toxic” and the inhibition at 5 µM (RAW264.7 [2]) was 20.5%.
In the case of COc1ccc(/C=C/C=C/C(=O)/C=C/c2cccc(O)c2)c(OC)c1, the Activity (RAW264.7 [1]) is reported as “Non-Toxic”, the inhibition at 5 µM (RAW264.7 [2]) is reported as 82.3% and the IC50 (RAW264.7 [3]) is reported as 970 nM.
With O=C(CCCCc1ccccc1)CCc1ccc(O)cc1 the Activity (RAW264.7 [1]) was “Non-Toxic” and the inhibition at 5 µM (RAW264.7 [2]) was 68.3%.
COc1ccc(CCC(=O)CC/C=C/c2ccccc2)cc1 was tested, and the Activity (RAW264.7 [1]) was “Non-Toxic” and the inhibition at 5 µM (RAW264.7 [2]) was -17.2%.
Oc1ccc(CCC(O)/C=C/C=C/c2ccccc2)cc1O (single isomer, unassigned) was tested, and the Activity (RAW264.7 [1]) was “Non-Toxic” and the inhibition at 5 µM (RAW264.7 [2]) was 12.3%.
With CC(=O)Oc1ccc(CCC(=O)CCCCc2ccccc2)cc1 the Activity (RAW264.7 [1]) was “Non-Toxic” and the inhibition at 5 µM (RAW264.7 [2]) was 45.2%.
With COc1ccc(OC)c(/C=C/C=C/C(=O)/C=C/c2ccc(OC)c(O)c2)c1 the Activity (RAW264.7 [1]) was “Non-Toxic”, the inhibition at 5 µM (RAW264.7 [2]) was 101% and the IC50 (RAW264.7 [3]) was 610 nM.
With O=C(CC/C=C/c1ccccc1)CCc1ccc(O)cc1 the Activity (RAW264.7 [1]) was “Non-Toxic” and the inhibition at 5 µM (RAW264.7 [2]) was 46.1%.
